Results: patent US9995734B2, “Human T cell line assay for evaluating the immunologic identity of glatiramer acetate preparations” (Mylan Inc., priority 2013, dated 2018)

Assays:
Type in all cases: cell-based, human
[1] = tested on: Donor 3 GMA T-cell lines (165-B5G, 165-C4G, 165-C5G, 165-E9G, 165-F5G, 165-F10G); assay: MHC DR restriction testing (ATP proliferation with autologous and partially HLA-DR matched APC), Donor 3 GMA T-cell lines; conditions: 20 μg/mL
Method: (§1) MHC DR restriction testing of cell lines was carried out by measuring the proliferation response of the cell lines as described above in the presence of an array of APC selected based on the known HLA-DR loci of the original PBMC donor for the cell line tested, including autologous APC (B-LCL). The donors used are described in Table 2.
(§2) To define the MHC molecule used to present antigen to GA specific T cell lines, GA specific responses were measured in the presence of autologous APC and in the presence of APC matching one of the T cell donor's HLA-DR alleles. Therefore at least 3 APC were used in each experiment: autologous APC, APC matching DR allele 1 but not allele 2 and a third APC matching allele 2 but not allele 1. In some experiments a fourth APC B-LCL was used. A no antigen negative control was used. APC were inactivated by incubation with 50 ug/mL mitomycin C. Following inactivation, cells were washed three times to remove mitomycin C and suspended in X-VIVO 15 medium at 1×10^6 cells per mL. GA was added to the cell suspension to a final concentration of 20-60 μg/mL. The cells were incubated with antigen for 1 hour at 37° C. to allow antigen uptake and binding. The cell suspension was then centrifuged to pellet the cells and the cell pellet was washed once with medium. APC were adjusted to 2×10^5 cells per mL in X-VIVO 15 medium and added to opaque 96-well plates at 100 μL per well. T-cell suspensions of 2-4×10^5 cells per mL (unless otherwise specified) were added to the 96-well plates at 100 μL per well and the cultures incubated 4 days before measuring cell numbers using CellTiter Glo® (to evaluate proliferation).
(§3) Alternatively, APC were not pulsed. Instead, each well contained 10 ug/mL antigen, 50 μl APC and 100 μL of T cells.
(§4) After incubating for 4 days at 37° C. (5% CO2), 100 μL were removed from each well, combined with 100 μL CellTiterGlo reagent, and luminescence was measured using a Packard Fusion. Results were expressed in relative light units (RLU).
(§5) As described in the Methods, T-cell lines were tested for MHC restriction by measuring proliferation following incubation with APC. Mitomycin-treated autologous APC, and test APC, e.g., from donors having at least one HLA-DR match with the original PBMC donor were employed. The values in the data tables below are in RLU.
Donor 3 T-cell line 165-B5G was assayed for proliferation, using mitomycin-treated APC from Donors 3, 5, and 6 that had been incubated in the presence or the absence of 20 μg/mL GMA. T-cell line 165-B5G had been restimulated six times (not including the initial stimulation) with antigen before the MHC restriction assay was carried out. The data, shown in Table 62 and FIG. 9A, indicate that 165-B5G is restricted by HLA-DRβ1*11.
Donor 3 T-cell line 165-C4G was assayed for proliferation, using mitomycin-treated APC from Donors 3, 5, and 7 that had been incubated in the presence or the absence of 20 μg/mL GMA. T-cell line 165-C4G had been restimulated five times (not including the initial stimulation) with antigen before the MHC restriction assay was carried out. The data, shown in Table 63 and FIG. 9B, indicate that 165-C4G is restricted by HLA-DRβ1*11.
Donor 3 T-cell line 165-05G was assayed for proliferation, using mitomycin-treated APC from Donors 3, 5, and 6 that had been incubated in the presence or the absence of 20 μg/mL GMA. T-cell line 165-05G had been restimulated four times (not including the initial stimulation) with antigen before the MHC restriction assay was carried out. The data, shown in Table 64 and FIG. 10A, indicate that 165-05G is restricted by HLA-DRβ1*1501.
Donor 3 T-cell line 165-E9G was assayed for proliferation, using mitomycin-treated APC from Donors 3, 5, and 6 that had been incubated in the presence or the absence of 20 μg/mL GMA. T-cell line 165-E9G had been restimulated four times (not including the initial stimulation) with antigen before the MHC restriction assay was carried out. […]

[2] = tested on: Donor 4 COP T-cell lines (205-1D1, 205-1H7, 205-1F4); assay: MHC DR restriction testing (ATP proliferation with autologous and partially HLA-DR matched B-LCL), Donor 4 COP T-cell lines; conditions: for Proliferation with antigen-incubated B-LCL, Mean: T-cell line 205-1F4
Method: as §1, §2, §3, §4, §5
Donor 4 T-cell line 205-1D1 was assayed for proliferation, using autologous B-LCL, and B-LCL from Donors 1, 2, and 6 that had been incubated in the presence or absence of 60 μg/mL COP. T-cell line 205-1D1 was restimulated 5 times (not including the initial stimulation) with antigen before the MHC restriction assay was carried out. The results, shown in Table 73, indicate that 205-1D1 is restricted by HLA-DRβ1*13.
Donor 4 T-cell line 205-1H7 was assayed for proliferation, using autologous B-LCL, and B-LCL from Donors 1, 2, and 6 that had been incubated in the presence or absence of 40 μg/mL COP. T-cell line 205-1H7 was restimulated 5 times (not including the initial stimulation) with antigen before the MHC restriction assay was carried out. The results, shown in Table 74 and FIG. 14B, indicate that 205-1H7 is restricted by HLA-DRβ1*13.
Donor 4 T-cell line 205-1F4 and 205-1C4 was assayed for proliferation, using autologous B-LCL, and B-LCL from Donors 1, 2, and 6 that had been incubated in the presence or absence of 40 μg/mL COP. T-cell line 205-1F4 was restimulated 7 times (not including the initial stimulation) with antigen before the MHC restriction assay was carried out. The results, shown in Table 75, indicate that 205-1F4 is restricted by HLA-DRβ1*13.

GA-specific T-cell lines = conditions: concentrations approaching and exceeding 10 μg/mL; data not shown
Method: GA-specific T-cell lines from Donors 1 and 3 were tested for proliferation in response to stimulation with peptide GL 14, poly (Glu-Lys 1:4).

With glatiramer acetate [GMA] the “Proliferation with antigen-incubated APC” value ([1]; T-cell line 165-B5G, B-LCL Donor 3 (Autologous) DRβ1*1501/DRβ1*11) was 4776 RLU, the “Proliferation with antigen-incubated APC” value ([1]; T-cell line 165-B5G, B-LCL Donor 5 DRβ1*01/DRβ1*11) was 5450 RLU and the “Proliferation with antigen-incubated APC” value ([1]; T-cell line 165-B5G, B-LCL Donor 6 DRβ1*1501/DRβ1*13) was 2360 RLU. For the same substance, the “Proliferation with antigen-incubated APC” value ([1]; T-cell line 165-C4G, B-LCL Donor 3 (Autologous) DRβ1*1501/DRβ1*11) was 48711 RLU, the “Proliferation with antigen-incubated APC” value ([1]; T-cell line 165-C4G, B-LCL Donor 5 DRβ1*01/DRβ1*11) was 41833 RLU and the “Proliferation with antigen-incubated APC” value ([1]; T-cell line 165-C4G, B-LCL Donor 7 DRβ1*1501/DRβ1*03) was 4870 RLU. For the same substance, the “Proliferation with antigen-incubated APC” value ([1]; T-cell line 165-C5G, B-LCL Donor 3 (Autologous) DRβ1*1501/DRβ1*11) was 16461 RLU, the “Proliferation with antigen-incubated APC” value ([1]; T-cell line 165-C5G, B-LCL Donor 5 DRβ1*01/DRβ1*11) was 9825 RLU and the “Proliferation with antigen-incubated APC” value ([1]; T-cell line 165-C5G, B-LCL Donor 6 DRβ1*1501/DRβ1*13) was 31717 RLU. The “Proliferation with antigen-incubated APC” value ([1]; T-cell line 165-E9G, B-LCL Donor 3 (Autologous) DRβ1*1501/DRβ1*11) was 5452 RLU, the “Proliferation with antigen-incubated APC” value ([1]; T-cell line 165-E9G, B-LCL Donor 5 DRβ1*01/DRβ1*11) was 9514 RLU and the “Proliferation with antigen-incubated APC” value ([1]; T-cell line 165-E9G, B-LCL Donor 6 DRβ1*1501/DRβ1*13) was 1442 RLU. The “Proliferation with antigen-incubated APC” value ([1]; T-cell line 165-F5G, B-LCL Donor 3 (Autologous) DRβ1*1501/DRβ1*11) was 2862 RLU, the “Proliferation with antigen-incubated APC” value ([1]; T-cell line 165-F5G, B-LCL Donor 5 DRβ1*01/DRβ1*11) was 3971 RLU and the “Proliferation with antigen-incubated APC” value ([1]; T-cell line 165-F5G, B-LCL Donor 6 DRβ1*1501/DRβ1*13) was 1424 RLU. For the same substance, the “Proliferation with antigen-incubated APC” value ([1]; T-cell line 165-F10G, B-LCL Donor 3 (Autologous) DRβ1*1501/DRβ1*11) was 120946 RLU, the “Proliferation with antigen-incubated APC” value ([1]; T-cell line 165-F10G, B-LCL Donor 5 DRβ1*01/DRβ1*11) was 6221 RLU and the “Proliferation with antigen-incubated APC” value ([1]; T-cell line 165-F10G, B-LCL Donor 7 DRβ1*1501/DRβ1*03) was 151115 RLU.
In the case of glatiramer acetate [COP], the “Proliferation with antigen-incubated B-LCL” value ([2]; T-cell line 205-1D1, B-LCL Donor 1 DRβ1*04:01/DRβ1*07:01, 60 μg/mL) is reported as 1504.7 RLU, the “Proliferation with antigen-incubated B-LCL” value ([2]; T-cell line 205-1D1, B-LCL Donor 2 DRβ1*04:01/DRβ1*04:04, 60 μg/mL) is reported as 1203.7 RLU and the “Proliferation with antigen-incubated B-LCL” value ([2]; T-cell line 205-1D1, B-LCL Donor 4 (autologous) DRβ1*07/DRβ1*13, 60 μg/mL) is reported as 231113.0 RLU. The “Proliferation with antigen-incubated B-LCL” value ([2]; T-cell line 205-1D1, B-LCL Donor 6 DRβ1*15:01/DRβ1*13, 60 μg/mL) was 203780.3 RLU, the “Proliferation with antigen-incubated B-LCL, Mean” value (“Proliferation … Mean” for short) ([2]; APC donor 1 *04:01, *07, 40 μg/mL) was 11323 RLU and the “Proliferation … Mean” value ([2]; APC donor 2 *04:01*04:04, 40 μg/mL) was 1786 RLU. For the same substance, the “Proliferation … Mean” value ([2]; APC donor 4 (autologous) *07, *13, 40 μg/mL) was 84094 RLU, the “Proliferation … Mean” value ([2]; APC donor 6 *13, *15, 40 μg/mL) was 113079 RLU and the “Proliferation with antigen-incubated B-LCL” value ([2]; T-cell line 205-1H7, B-LCL Donor 1 DRβ1*04:01/DRβ1*07:01, 40 μg/mL) was 8430 RLU. The “Proliferation with antigen-incubated B-LCL” value ([2]; T-cell line 205-1H7, B-LCL Donor 2 DRβ1*04:01/DRβ1*04:04, 40 μg/mL) was 2065 RLU, the “Proliferation with antigen-incubated B-LCL” value ([2]; T-cell line 205-1H7, B-LCL Donor 4 (autologous) DRβ1*07/DRβ1*13, 40 μg/mL) was 32418 RLU and the “Proliferation with antigen-incubated B-LCL” value ([2]; T-cell line 205-1H7, B-LCL Donor 6 DRβ1*15:01/DRβ1*13, 40 μg/mL) was 30583 RLU.
poly (Glu-Lys; 1:4) [GL 14] was tested, and the “cell death” value (GA-specific T-cell lines) was “causes cell death”.
